Laboratory results: patent US20240132431A1, “METHOD FOR ALKYLATING ACIDIC FUNCTIONAL GROUP” (Chugai Seiyaku Kabushiki Kaisha, priority 2021, published 2024)
Each block holds one compound with its values, some of them ahead of it.

Target: T1, Bcl-2 protein (Recombinant Human Bcl-2 Protein) (Homo sapiens, UniProt P10415)
T1 construct: purchased Novus NBP2-34889
Test: Binding evaluation of mixture library compounds to Bcl-2 using AS-MS (affinity selection mass spectrometry)
Conditions: for ASMS ratio (%) n = 1 / ASMS ratio (%) n = 2: ASMS Ratio(%)=(A−C)/B×100; for ASMS ratio (%) n = 1: replicate n = 1; for ASMS ratio (%) n = 2: replicate n = 2
Outline: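 Bcl-2 binding is scored from LC/MS signal retained with protein through gel-filtration spin columns, normalised to unfiltered and protein-free controls. Incubation: 20 μM protein, […] per compound, 1 h, 23° C.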

[1] = AS-MS on the mixture of 1200 library compounds
[2] = AS-MS, mixture of 1200 compounds, Bcl-2

T1 sequence (P10415 whole entry): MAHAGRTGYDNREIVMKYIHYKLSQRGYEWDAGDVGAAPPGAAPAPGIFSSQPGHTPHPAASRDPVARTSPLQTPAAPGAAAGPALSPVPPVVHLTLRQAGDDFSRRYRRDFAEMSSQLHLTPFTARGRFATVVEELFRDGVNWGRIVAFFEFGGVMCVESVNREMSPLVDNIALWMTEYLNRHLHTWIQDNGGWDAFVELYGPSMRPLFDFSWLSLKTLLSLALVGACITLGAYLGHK

ASMS ratio (%) n = 1 [1]: −39.8% | ASMS ratio (%) n = 2 [1]: 0.0%
Compound: CCOc1cncc(-c2ccc(C(C)N3CCN(c4ccc(C(=O)N(C)CC56CC7CC(CC(C7)C5)C6)cc4)CC3)c(F)c2)c1 (stereo not shown) [B3A100-01, N-(1-Adamantylmethyl)-4-[4-[1-[4-(5-ethoxypyridin-3-yl)-2-fluorophenyl]ethyl]piperazin-1-yl]-N-methylbenzamide]

ASMS ratio (%) n = 1 (AS-MS, mixture library, Bcl-2): −1.6% | ASMS ratio (%) n = 2 (AS-MS, mixture library, Bcl-2): −1.6%
Compound: CCOc1cccc(C#Cc2ccccc2C(=O)N2CCN(c3ccc(C(=O)NS(C)(=O)=O)nn3)CC2)c1 [B2I007-01, 6-[4-[2-[2-(3-Ethoxyphenyl)ethynyl]benzoyl]piperazin-1-yl]-N-methylsulfonylpyridazine-3-carboxamide]

Compound: CCOc1cccc(-c2ccccc2CN2CCN(c3ccc(C(=O)N(CC)CC)cc3)CC2)c1 [B4J045-01, 4-[4-[[2-(3-Ethoxyphenyl)phenyl]methyl]piperazin-1-yl]-N,N-diethylbenzamide]
ASMS ratio (%) n = 1 [1]: 1.1% | ASMS ratio (%) n = 2 [1]: 0.3%

ASMS ratio (%) (n = 1): 22.4% | ASMS ratio (%) (n = 2): 5.3%
Compound: CCOc1cncc(-c2cc(CN3CCN(c4ccc(C(=O)NS(=O)(=O)c5ccc(NCCSc6ccccc6)c(C(F)(F)F)c5)nn4)CC3)cc(OC(F)(F)F)c2)c1 [B2R090-01, 6-[4-[[3-(5-Ethoxypyridin-3-yl)-5-(trifluoromethoxy)phenyl]methyl]piperazin-1-yl]-N-[4-(2-phenylsulfanylethylamino)-3-(trifluoromethyl)phenyl]sulfonylpyridazine-3-carboxamide]

ASMS ratio (%) n = 1 (AS-MS, mixture library, Bcl-2): −2.7% | ASMS ratio (%) n = 2 (AS-MS, mixture library, Bcl-2): −22.1%
Compound: CCOc1cncc(-c2ccccc2CN2CCN(c3ccc(C(=O)NS(=O)(=O)CC45CC6CC(CC(C6)C4)C5)cc3)CC2)c1 [B2A046-01, N-(1-Adamantylmethylsulfonyl)-4-[4-[[2-(5-ethoxypyridin-3-yl)phenyl]methyl]piperazin-1-yl]benzamide]

ASMS ratio (%) (n = 1): 0.0% | ASMS ratio (%) (n = 2): −0.4%
Compound: CCOc1cncc(C#Cc2ccccc2C(=O)N2CCN(c3ccc(C(=O)NS(=O)(=O)CCC(F)(F)F)nn3)CC2)c1 [B2N008-01, 6-[4-[2-[2-(5-Ethoxypyridin-3-yl)ethynyl]benzoyl]piperazin-1-yl]-N-(3,3,3-trifluoropropylsulfonyl)pyridazine-3-carboxamide]

Compound: CCOc1cccc(-c2ccc(CN3CCN(c4ccc(C(=O)N(CC)CC)cc4)CC3)c(CC)c2)c1 [B4J049-01, 4-[4-[[4-(3-Ethoxyphenyl)-2-ethylphenyl]methyl]piperazin-1-yl]-N,N-diethylbenzamide]
ASMS ratio (%) n = 1 [1]: 7.1% | ASMS ratio (%) n = 2 [1]: −1.4%

ASMS ratio (%) n = 1 [2]: 2.2% | ASMS ratio (%) n = 2 [2]: −0.2%
Compound: CCOc1cncc(-c2cc(CN3CCN(c4ccc(C(=O)NCC(F)(F)F)nn4)CC3)cc(C(F)(F)F)c2)c1 [B1K088-01, 6-[4-[[3-(5-Ethoxypyridin-3-yl)-5-(trifluoromethyl)phenyl]methyl]piperazin-1-yl]-N-(2,2,2-trifluoroethyl)pyridazine-3-carboxamide]

ASMS ratio (%) n = 1 [2]: 1.4% | ASMS ratio (%) n = 2 [2]: −3.8%
Compound: CCOc1cccc(-c2ccc(CN3CCN(c4ccc(C(=O)NCC(F)(F)F)nn4)CC3)c(CC)c2)c1 [B1K075-01, 6-[4-[[4-(3-Ethoxyphenyl)-2-ethylphenyl]methyl]piperazin-1-yl]-N-(2,2,2-trifluoroethyl)pyridazine-3-carboxamide]

ASMS ratio (%) n = 1 (AS-MS, mixture library, Bcl-2): 9.9% | ASMS ratio (%) n = 2 (AS-MS, mixture library, Bcl-2): −13.7%
Compound: CCOc1cccc(-c2ccc(C(=O)N3CCN(c4ccc(C(=O)NS(=O)(=O)c5ccc(NCCSc6ccccc6)c([N+](=O)[O-])c5)cc4)CC3)c3ccccc23)c1 [B2Q035-01, 4-[4-[4-(3-Ethoxyphenyl)naphthalene-1-carbonyl]piperazin-1-yl]-N-[3-nitro-4-(2-phenylsulfanylethylamino)phenyl]sulfonylbenzamide]

ASMS ratio (%) n = 1 (AS-MS, mixture library, Bcl-2): 0.0% | ASMS ratio (%) n = 2 (AS-MS, mixture library, Bcl-2): 0.0%
Compound: CCOc1cccc(-c2ccc(C(=O)N3CCN(c4ccc(C(=O)NS(C)(=O)=O)nn4)CC3)cc2F)c1 [B2I005-01, 6-[4-[4-(3-Ethoxyphenyl)-3-fluorobenzoyl]piperazin-1-yl]-N-methylsulfonylpyridazine-3-carboxamide]

ASMS ratio (%) n = 1 (AS-MS, mixture library, Bcl-2): 0.0% | ASMS ratio (%) n = 2 (AS-MS, mixture library, Bcl-2): 0.0%
Compound: CCOc1cccc(-c2cc(C(=O)N3CCN(c4ccc(C(=O)NS(C)(=O)=O)nn4)CC3)cc(C(C)(C)C)c2)c1 [B2I015-01, 6-[4-[3-tert-Butyl-5-(3-ethoxyphenyl)benzoyl]piperazin-1-yl]-N-methylsulfonylpyridazine-3-carboxamide]

Compound: 4-[4-[5-[2-(3-Ethoxyphenyl)ethynyl]pyridine-3-carbonyl]piperazin-1-yl]-N-propylbenzamide [B1M002-01]
ASMS ratio (%) n = 1 [2]: −0.7% | ASMS ratio (%) n = 2 [2]: −1.5%

ASMS ratio (%) n = 1 [1]: 10.4% | ASMS ratio (%) n = 2 [1]: −2.8%
Compound: CCOc1cccc(C#Cc2cc(C(=O)N3CCN(c4ccc(C(=O)Nc5ccc(OC)cc5)cc4)CC3)cc(C(F)(F)F)c2)c1 [B1O041-01, 4-[4-[3-[2-(3-Ethoxyphenyl)ethynyl]-5-(trifluoromethyl)benzoyl]piperazin-1-yl]-N-(4-methoxyphenyl)benzamide]

ASMS ratio (%) n = 1 [2]: −1.7% | ASMS ratio (%) n = 2 [2]: 2.4%
Compound: CCOc1cccc(-c2ccc(C(=O)N3CCN(c4ccc(C(=O)NCC56CC7CC(CC(C7)C5)C6)nn4)CC3)c3ccccc23)c1 [B1A013-01, N-(1-Adamantylmethyl)-6-[4-[4-(3-ethoxyphenyl)naphthalene-1-carbonyl]piperazin-1-yl]pyridazine-3-carboxamide]

ASMS ratio (%) n = 1 [1]: 2.2% | ASMS ratio (%) n = 2 [1]: −5.0%
Compound: CCOc1cccc(-c2cnn(-c3cc(C(=O)N4CCN(c5ccc(C(=O)Nc6ccc(OC)cc6)cc5)CC4)cc(C(F)(F)F)c3)c2)c1 [B1O043-01, 4-[4-[3-[4-(3-Ethoxyphenyl)pyrazol-1-yl]-5-(trifluoromethyl)benzoyl]piperazin-1-yl]-N-(4-methoxyphenyl)benzamide]

ASMS ratio (%) n = 1 [2]: 1.0% | ASMS ratio (%) n = 2 [2]: 0.4%
Compound: CCCNC(=O)c1ccc(N2CCN(Cc3cc(-c4cccc(OCC)c4)cc(C(F)(F)F)c3)CC2)nn1 [B1M027-01]

ASMS ratio (%) (n = 1): 4.1% | ASMS ratio (%) (n = 2): −0.5%
Compound: CCOc1cncc(-c2ccc(C(=O)N3CCN(c4ccc(C(=O)NS(=O)(=O)c5ccc(NCCSc6ccccc6)c(C(F)(F)F)c5)cc4)CC3)cc2F)c1 [B2R028-01, 4-[4-[4-(5-Ethoxypyridin-3-yl)-3-fluorobenzoyl]piperazin-1-yl]-N-[4-(2-phenylsulfanylethylamino)-3-(trifluoromethyl)phenyl]sulfonylbenzamide]

ASMS ratio (%) (n = 1): 0.0% | ASMS ratio (%) (n = 2): 0.0%
Compound: CCOc1cccc(-c2ccc(CN3CCN(c4ccc(C(=O)NS(=O)(=O)CCC(F)(F)F)nn4)CC3)cc2F)c1 [B2N077-01, 6-[4-[[4-(3-Ethoxyphenyl)-3-fluorophenyl]methyl]piperazin-1-yl]-N-(3,3,3-trifluoropropylsulfonyl)pyridazine-3-carboxamide]

ASMS ratio (%) (n = 1): 3.2% | ASMS ratio (%) (n = 2): −0.8%
Compound: CCOc1cncc(-c2ccc(C(=O)N3CCN(c4ccc(C(=O)NS(=O)(=O)c5ccc(NCCSc6ccccc6)c(C(F)(F)F)c5)cc4)CC3)c3ccccc23)c1 [B2R036-01, 4-[4-[4-(5-Ethoxypyridin-3-yl)naphthalene-1-carbonyl]piperazin-1-yl]-N-[4-(2-phenylsulfanylethylamino)-3-(trifluoromethyl)phenyl]sulfonylbenzamide]

ASMS ratio (%) (n = 1): 0.0% | ASMS ratio (%) (n = 2): 0.0%
Compound: CCOc1cncc(-c2cnn(-c3cc(C(=O)N4CCN(c5ccc(C(=O)NS(=O)(=O)C(C)(C)C)nn5)CC4)cc(C(F)(F)F)c3)c2)c1 [B2L022-01, N-tert-Butylsulfonyl-6-[4-[3-[4-(5-ethoxypyridin-3-yl)pyrazol-1-yl]-5-(trifluoromethyl)benzoyl]piperazin-1-yl]pyridazine-3-carboxamide]

ASMS ratio (%) n = 1 [1]: 0.1% | ASMS ratio (%) n = 2 [1]: 0.2%
Compound: CCOc1cncc(-c2ccccc2CCC(=O)N2CCN(c3ccc(C(=O)Nc4ccc(OC)cc4)cc3)CC2)c1 [B1O034-01, 4-[4-[3-[2-(5-Ethoxypyridin-3-yl)phenyl]propanoyl]piperazin-1-yl]-N-(4-methoxyphenyl)benzamide]

ASMS ratio (%) n = 1 (AS-MS, mixture library, Bcl-2): 17.5% | ASMS ratio (%) n = 2 (AS-MS, mixture library, Bcl-2): 4.4%
Compound: CCOc1cccc(-c2cc(CN3CCN(c4ccc(C(=O)NS(=O)(=O)c5ccc(NCCSc6ccccc6)c([N+](=O)[O-])c5)cc4)CC3)cc(OC(C)C)c2)c1 [B2Q057-01, 4-[4-[[3-(3-Ethoxyphenyl)-5-propan-2-yloxyphenyl]methyl]piperazin-1-yl]-N-[3-nitro-4-(2-phenylsulfanylethylamino)phenyl]sulfonylbenzamide]

Compound: 4-[4-[[4-(5-Ethoxypyridin-3-yl)-2,6-dimethoxyphenyl]methyl]piperazin-1-yl]-N-propylbenzamide [B1M022-01]
ASMS ratio (%) n = 1 [2]: −13.6% | ASMS ratio (%) n = 2 [2]: 6.7%

ASMS ratio (%) n = 1 [1]: 3.5% | ASMS ratio (%) n = 2 [1]: −0.5%
Compound: CCOc1cncc(-c2ccc(C(=O)N3CCN(c4ccc(C(=O)N(C)CC56CC7CC(CC(C7)C5)C6)nn4)CC3)cc2C)c1 [B3A004-01, N-(1-Adamantylmethyl)-6-[4-[4-(5-ethoxypyridin-3-yl)-3-methylbenzoyl]piperazin-1-yl]-N-methylpyridazine-3-carboxamide]

ASMS ratio (%) n = 1 [2]: 2.0% | ASMS ratio (%) n = 2 [2]: 1.0%
Compound: CCOc1cccc(-c2cc(CN3CCN(c4ccc(C(=O)NCC(F)(F)F)nn4)CC3)cc(OC(F)(F)F)c2)c1 [B1K089-01, 6-[4-[[3-(3-Ethoxyphenyl)-5-(trifluoromethoxy)phenyl]methyl]piperazin-1-yl]-N-(2,2,2-trifluoroethyl)pyridazine-3-carboxamide]
